Data from US20230227508A1, “SPLIT INTEIN-BASED SELECTION FOR PEPTIDE BINDERS” (priority 2020, published 2023).
Entries after “also recorded” stand apart in the source; their conditions may differ. No end group written: not given here.

Assays:
[1] = system: Streptococcus pneumoniae; test: Dilution series against Streptococcus pneumoniae; assay type: cell-based; settings: serial dilution of SPE-purified peptide
[2] = system: human microbiome-associated strains (Staphylococcus aureus, Streptococcus infantarius, Streptococcus dysgalactiae, Pediococcus acidilactici …); assay type: cell-based; settings: microtiter-purified RiPPs; initial test set of indicator strains
[3] = system: methicillin-resistant Staphylococcus aureus (MRSA), vancomycin-resistant Enterococcus faecium (VRE), Streptococcus pneumoniae; test: Dilution series, dose-dependent killing of MDR clinical isolates; assay type: cell-based; settings: for dose-dependent antimicrobial activity against at least one strain: 2-fold serial dilution of SPE-purified peptide from liter scale fermentation
[4] = system: indicator strains from niches of the human microbiome (Table 11); test: 96-well antimicrobial profiling, residual growth (OD600); assay type: cell-based; settings: for activity against strains of the alimentary tract: Bifidobacterium adolescenits, Bifidobacterium longum, Sellimonas intestinalis, Streptococcus dysgalactiae; for antimicrobial activity (fingerprint, residual growth): set amount of SPE purified RiPP, large panel of indicator strains
[5] = biological target: their target; settings: read-out: binding to their target; cited from earlier work
[6] = biological target: SARS-CoV-2 Spike RBD (residues 328-533) as bait (Severe acute respiratory syndrome coronavirus 2, UniProt P0DTC2)
[7] = system: Lactobacillus crispatus; test: Antimicrobial activity against Lactobacillus crispatus; assay type: cell-based; settings: FIG. 57D

GGWFTAIQLTLAGRCGNWFTGSFECTSNNVKCG [AMK-287]
activity against Streptococcus pneumoniae [1]: pronounced activity | zones of inhibition [2]: varying zones of inhibition | dose-dependent antimicrobial activity against at least one strain [3]: Dose-dependent antimicrobial activity | activity against other Streptococci (strains with significant activity, spectrum) ([4]; 5 Streptococcal strains of the panel): narrow spectrum of activity | activity against strains of the alimentary tract [4]: pronounced activity | antimicrobial activity (fingerprint, residual growth) [4]: active

GLIYGKYRDVLSGARLVTPPEVALRLVPR [AMK-917]
antimicrobial activity (fingerprint, residual growth) [4]: active

GWLWGSYRDVYGVWHGPRTNFNGAGGSSEWRLVPR [AMK-1009]
antimicrobial activity (fingerprint, residual growth) [4]: active

microcin J25 (GGAGHVPEYFVGIGTPISFYG; ends and bridges not checked; UniProt Q9X2V7 38-58, looked up)
Kd [5]: 2000 nM

VCKYGEWCEIVEI [VCKYGEWCEIVEI (SEQ ID NO: 24)]
specificity for the Spike RBD as bait over Mdm2* [6]: 14 fold | transcriptional output of circuit [6]: strong transcriptional output

GWYWGNRRDIYGALRYANKRLVPR [AMK-1010]
antimicrobial activity (fingerprint, residual growth) [4]: active

GWQTAFRLTMQGRCGGVFTLSYECATPHVSCG [AMK-916]
activity against strains of the alimentary tract [4]: pronounced activity | antimicrobial activity (fingerprint, residual growth) [4]: active

GGDGVMHTLTHECHMNTWQFLLTCC [AMK-417]
dose-dependent antimicrobial activity against at least one strain [3]: Dose-dependent antimicrobial activity | antimicrobial activity (fingerprint, residual growth) [4]: active

GHVELMNADKVKCKSTSTTKSCSSTSTTSVD [AMK-720]
antimicrobial activity (fingerprint, residual growth) [4]: exceptionally broad antimicrobial activity

GGKNGVFKTISHECHLNTWAFLATCCS [AMK-691]
zones of inhibition [2]: varying zones of inhibition | activity against Lactobacillus crispatus [7]: demonstrated activity | dose-dependent antimicrobial activity against at least one strain [3]: Dose-dependent antimicrobial activity | antimicrobial activity (fingerprint, residual growth) [4]: active

GSRWWQGVLPTVSHECRMNSFQHIFTCC [AMK-687]
zones of inhibition [2]: varying zones of inhibition | activity against Lactobacillus crispatus [7]: even more pronounced activity | antimicrobial activity against MDR clinical isolates (potency, spectrum, in words) [3]: particularly potent and broad-spectrum antimicrobial activity against all four isolates | dose-dependent antimicrobial activity against at least one strain [3]: Dose-dependent antimicrobial activity | antimicrobial activity (fingerprint, residual growth) [4]: active; also recorded: remarkable antimicrobial activity

CN[C@H](CC(C)C)C(=O)N[C@H]1C(=O)N[C@@H](CC(N)=O)C(=O)N[C@H]2C(=O)N[C@H]3C(=O)N[C@H](C(=O)N[C@H](C(=O)O)c4cc(O)cc(O)c4-c4cc3ccc4O)[C@H](O)c3ccc(c(Cl)c3)Oc3cc2cc(c3O[C@@H]2O[C@H](CO)[C@@H](O)[C@H](O)[C@H]2O[C@H]2C[C@](C)(N)[C@H](O)[C@H](C)O2)Oc2ccc(cc2Cl)[C@H]1O [vancomycin]
Kd [5]: ~1000 nM

GGGWYTAFKLTLAGRCGLCFTCSYECTSNNVHC [AMK-286]
activity against strains of the alimentary tract [4]: pronounced activity | antimicrobial activity (fingerprint, residual growth) [4]: active
